Tested on: 349418-098-R tumor spheroid viability
Assay: Anticancer human tumor 349418-098-R patient-derived lung adenocarcinoma cell line growth inhibition
Conditions: spheroids with HUVEC and MSC; for IC50: curve of first compound; for viability, T/C: stronger effect = lower value
Summary of the method: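 Complex tumor spheroids combined malignant cells with endothelial cells and mesenchymal stem cells. DNA-damaging drugs and DNA repair inhibitors were tested alone and in combination, at half-log dilutions down from clinical Cmax (top 10 microM if Cmax unknown), 0.25% DMSO final.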

[1] = second compound 0.003 µM, first compound 0.00949 µM
[2] = second compound 0.003 µM, first compound 0.03 µM
[3] = second compound 0.003 µM, first compound 0.0949 µM
[4] = second compound 0.003 µM, first compound 0.3 µM
[5] = second compound 0.003 µM, first compound 0.949 µM
[6] = second compound 0.003 µM, first compound 3 µM
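Further: spheroids exposed to compound for 7 days before measurement.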
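Wherever viability, T/C is given: percent of vehicle control viability with 100% = DMSO-treated spheroids.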

For `Cc1sc2c(c1C)C(c1ccc(Cl)cc1)=NC(CC(=O)Nc1ccc(O)cc1)c1nnc(C)n1-2` (stereo not given) + CC[C@@]1(O)C(=O)OCc2c1cc1n(c2=O)Cc2cc3c(CN(C)C)c(O)ccc3nc2-1, the IC50 (second compound 0.003 µM) was 71.4 nM, the IC50 (second compound 0.00949 µM) was 69.2 nM and the IC50 (second compound 0.03 µM) was 41.6 nM. The IC50 (second compound 0.0949 µM) was < 9.49 nM, the IC50 (second compound 0.3 µM) was < 9.49 nM and the viability, T/C [1] was 96.2%. For the same compound, the viability, T/C [2] was 83.1%, the viability, T/C [3] was 39.1% and the viability, T/C [4] was 7.85%. For the same compound, the viability, T/C [5] was 0.87%, the viability, T/C [6] was 0.47% and the viability, T/C (second compound 0.00949 µM, first compound 0.00949 µM) was 92.4%. The viability, T/C (second compound 0.00949 µM, first compound 0.03 µM) was 78.1%, the viability, T/C (second compound 0.00949 µM, first compound 0.0949 µM) was 40% and the viability, T/C (second compound 0.00949 µM, first compound 0.3 µM) was 6.43%. For the same compound, the viability, T/C (second compound 0.00949 µM, first compound 0.949 µM) was 0.61%, the viability, T/C (second compound 0.00949 µM, first compound 3 µM) was 0.48% and the viability, T/C (second compound 0.03 µM, first compound 0.00949 µM) was 77.9%. The viability, T/C (second compound 0.03 µM, first compound 0.03 µM) was 61.7%, the viability, T/C (second compound 0.03 µM, first compound 0.0949 µM) was 20.9% and the viability, T/C (second compound 0.03 µM, first compound 0.3 µM) was 5.67%. It also gave a viability, T/C (second compound 0.03 µM, first compound 0.949 µM) of 0.64%, a viability, T/C (second compound 0.03 µM, first compound 3 µM) of 0.38% and a viability, T/C (second compound 0.0949 µM, first compound 0.00949 µM) of 12.6%. It also gave a viability, T/C (second compound 0.0949 µM, first compound 0.03 µM) of 16.2%, a viability, T/C (second compound 0.0949 µM, first compound 0.0949 µM) of 4.16% and a viability, T/C (second compound 0.0949 µM, first compound 0.3 µM) of 1.07%. For the same compound, the viability, T/C (second compound 0.0949 µM, first compound 0.949 µM) was 0.3%, the viability, T/C (second compound 0.0949 µM, first compound 3 µM) was 0.35% and the viability, T/C (second compound 0.3 µM, first compound 0.00949 µM) was 2.78%. The viability, T/C (second compound 0.3 µM, first compound 0.03 µM) was 2.56%, the viability, T/C (second compound 0.3 µM, first compound 0.0949 µM) was 1.45% and the viability, T/C (second compound 0.3 µM, first compound 0.3 µM) was 0.63%. It also gave a viability, T/C (second compound 0.3 µM, first compound 0.949 µM) of 0.55% and a viability, T/C (second compound 0.3 µM, first compound 3 µM) of 0.39%.
`Cn1ncnc1[C@H]1c2n[nH]c(=O)c3cc(F)cc(c23)N[C@@H]1c1ccc(F)cc1` + COc1cc2c(cc1O)CCNC21CSC2c3c(OC(C)=O)c(C)c4c(c3C(COC1=O)N1C(O)C3Cc5cc(C)c(OC)c(O)c5C(C21)N3C)OCO4 was tested, and the IC50 (second compound 30 pM) was 1640 nM, the IC50 (second compound 94.9 pM) was 956 nM and the IC50 (second compound 0.0003 µM) was 107 nM. The IC50 (second compound 0.000949 µM) was < 9.49 nM, the IC50 (second compound 0.003 µM) was < 9.49 nM and the viability, T/C (second compound 30 pM, first compound 0.00949 µM) was 87.2%. For the same compound, the viability, T/C (second compound 30 pM, first compound 0.03 µM) was 97.2%, the viability, T/C (second compound 30 pM, first compound 0.0949 µM) was 88.8% and the viability, T/C (second compound 30 pM, first compound 0.3 µM) was 93.5%. The viability, T/C (second compound 30 pM, first compound 0.949 µM) was 86.8%, the viability, T/C (second compound 30 pM, first compound 3 µM) was 9.75% and the viability, T/C (second compound 94.9 pM, first compound 0.00949 µM) was 93.2%. It also gave a viability, T/C (second compound 94.9 pM, first compound 0.03 µM) of 89.6%, a viability, T/C (second compound 94.9 pM, first compound 0.0949 µM) of 85.6% and a viability, T/C (second compound 94.9 pM, first compound 0.3 µM) of 94.8%. It also gave a viability, T/C (second compound 94.9 pM, first compound 0.949 µM) of 50.3%, a viability, T/C (second compound 94.9 pM, first compound 3 µM) of 4.92% and a viability, T/C (second compound 0.0003 µM, first compound 0.00949 µM) of 66.4%. For the same compound, the viability, T/C (second compound 0.0003 µM, first compound 0.03 µM) was 68.5%, the viability, T/C (second compound 0.0003 µM, first compound 0.0949 µM) was 47.8% and the viability, T/C (second compound 0.0003 µM, first compound 0.3 µM) was 34.9%. The viability, T/C (second compound 0.0003 µM, first compound 0.949 µM) was 11.5%, the viability, T/C (second compound 0.0003 µM, first compound 3 µM) was 2.39% and the viability, T/C (second compound 0.000949 µM, first compound 0.00949 µM) was 0.87%. The viability, T/C (second compound 0.000949 µM, first compound 0.03 µM) was 0.43%, the viability, T/C (second compound 0.000949 µM, first compound 0.0949 µM) was 0.53% and the viability, T/C (second compound 0.000949 µM, first compound 0.3 µM) was 0.21%. For the same compound, the viability, T/C (second compound 0.000949 µM, first compound 0.949 µM) was 0.13%, the viability, T/C (second compound 0.000949 µM, first compound 3 µM) was 0.19% and the viability, T/C [1] was 1.57%. For the same compound, the viability, T/C [2] was 1.54%, the viability, T/C [3] was 1.41% and the viability, T/C [4] was 1.35%. It also gave a viability, T/C [5] of 2.21% and a viability, T/C [6] of 3.32%.
With `CC(C)n1c(=O)n(C)c2cnc3cc(F)c(-c4ccc(OCCCN5CCCCC5)nc4)cc3c21` + COc1cc2c(cc1O)CCNC21CSC2c3c(OC(C)=O)c(C)c4c(c3C(COC1=O)N1C(O)C3Cc5cc(C)c(OC)c(O)c5C(C21)N3C)OCO4 the IC50 (second compound 30 pM) was > 10000 nM, the IC50 (second compound 94.9 pM) was > 10000 nM and the IC50 (second compound 0.0003 µM) was < 31.6 nM. The IC50 (second compound 0.000949 µM) was < 31.6 nM, the IC50 (second compound 0.003 µM) was < 31.6 nM and the viability, T/C (second compound 30 pM, first compound 0.0316 µM) was 91.8%. The viability, T/C (second compound 30 pM, first compound 0.1 µM) was 97.4%, the viability, T/C (second compound 30 pM, first compound 0.316 µM) was 106% and the viability, T/C (second compound 30 pM, first compound 1 µM) was 99.6%. It also gave a viability, T/C (second compound 30 pM, first compound 3.16 µM) of 98.4%, a viability, T/C (second compound 30 pM, first compound 10 µM) of 77.7% and a viability, T/C (second compound 94.9 pM, first compound 0.0316 µM) of 91.5%. The viability, T/C (second compound 94.9 pM, first compound 0.1 µM) was 85%, the viability, T/C (second compound 94.9 pM, first compound 0.316 µM) was 93% and the viability, T/C (second compound 94.9 pM, first compound 1 µM) was 92.7%. For the same compound, the viability, T/C (second compound 94.9 pM, first compound 3.16 µM) was 94.6%, the viability, T/C (second compound 94.9 pM, first compound 10 µM) was 60.2% and the viability, T/C (second compound 0.0003 µM, first compound 0.0316 µM) was 40.2%. The viability, T/C (second compound 0.0003 µM, first compound 0.1 µM) was 37%, the viability, T/C (second compound 0.0003 µM, first compound 0.316 µM) was 31.7% and the viability, T/C (second compound 0.0003 µM, first compound 1 µM) was 32.1%. For the same compound, the viability, T/C (second compound 0.0003 µM, first compound 3.16 µM) was 45.2%, the viability, T/C (second compound 0.0003 µM, first compound 10 µM) was 22.1% and the viability, T/C (second compound 0.000949 µM, first compound 0.0316 µM) was 0.4%. It also gave a viability, T/C (second compound 0.000949 µM, first compound 0.1 µM) of 0.3%, a viability, T/C (second compound 0.000949 µM, first compound 0.316 µM) of 0.49% and a viability, T/C (second compound 0.000949 µM, first compound 1 µM) of 1.21%. It also gave a viability, T/C (second compound 0.000949 µM, first compound 3.16 µM) of 1.2%, a viability, T/C (second compound 0.000949 µM, first compound 10 µM) of 0.62% and a viability, T/C (second compound 0.003 µM, first compound 0.0316 µM) of 1.38%. It also gave a viability, T/C (second compound 0.003 µM, first compound 0.1 µM) of 1.4%, a viability, T/C (second compound 0.003 µM, first compound 0.316 µM) of 1.38% and a viability, T/C (second compound 0.003 µM, first compound 1 µM) of 1.37%. It also gave a viability, T/C (second compound 0.003 µM, first compound 3.16 µM) of 1.41% and a viability, T/C (second compound 0.003 µM, first compound 10 µM) of 1.51%.

Reference: PubChem BioAssay AID1845197 (Molecular Pharmacology Branch, DTP, NCI, 2023)
